Where two headings read alike, the source gives them in different places.
What was measured:
[1] = Metabolic stability in pooled human liver microsomes; assay type: in vitro ADME; settings: pooled human liver microsomes 0.5 mg/ml, 1 μM test compound, 37° C.
Protocol: Pooled human liver microsomes in PBS at a concentration of 0.5 mg/ml was incubated with or without 1 mM NADPH for 70 min at 37° C. Test compound was added after 10 minutes to a final concentration of 1 μM. Samples were withdrawn at 0, 5, 15 and 60 minutes and added to test tubes containing acetonitrile, to stop the reaction, and with terfenadine, used as internal standard. After centrifugation at 10 000×g for 5 minutes the supernatant was diluted 1:1 with 1% formic acid. Samples were separated on a reverse phase column and detected by triple quadrupole MSMS (Agilant model 6540). The concentration of the parent compound at the different time points was measured with an external standard curve using terfenadine as internal standard and the initial metabolic rate in the presence or absence of NADPH calculated.

[2] = target: T1, human recombinant AT2 receptor (Homo sapiens, UniProt P50052); assay: Binding to AT2 receptor, radiometric scintillation assay (Eurofins); settings: ligand 125I CGP 42112A, tested at 1, 10, 100 and 1000 nM
T1 construct: purchased Eurofins ITEM26
T1 sequence (P50052 1-363): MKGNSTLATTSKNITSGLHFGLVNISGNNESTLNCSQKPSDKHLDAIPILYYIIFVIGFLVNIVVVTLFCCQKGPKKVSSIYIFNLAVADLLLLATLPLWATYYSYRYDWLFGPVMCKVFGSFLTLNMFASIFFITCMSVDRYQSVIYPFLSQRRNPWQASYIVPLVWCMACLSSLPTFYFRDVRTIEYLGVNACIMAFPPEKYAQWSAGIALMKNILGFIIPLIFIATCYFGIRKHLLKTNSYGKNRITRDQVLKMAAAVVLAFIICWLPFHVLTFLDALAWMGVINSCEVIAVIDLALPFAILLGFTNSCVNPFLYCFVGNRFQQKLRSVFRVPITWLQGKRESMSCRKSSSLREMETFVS
Protocol: Compounds were evaluated for binding to the human recombinant AT2 and AT1 receptor according to Eurofins protocol ITEM26 and ITEM24 using a radiometric scintillation assay.

[3] = with 1 mM NADPH, read-out: T1/2, + NaDPH
[4] = without NADPH, read-out: T1/2, no NaDPH

half-life at 1 μM [1, 3] [h]	half-life at 1 μM [1, 4] [h]	IC50 [2] [nM]	Structure (SMILES)
> 1	> 1	32	Cc1nccn1Cc1ccc(-c2cc(CC(C)C)sc2S(=O)(=O)NC(=O)NCCCF)cc1 [Example 28, 1-(3-Fluoropropyl)-3-(5-isobutyl-3-{p-[(2-methyl-1H-imidazol-1-yl)methyl]phenyl}-2-thienylsulfonyl)urea]
		33	Cc1nccn1Cc1ccc(-c2cc(CC(C)C)sc2S(=O)(=O)NC(=O)NCCC(F)F)cc1 [Example 29, 1-(3,3-Difluoropropyl)-3-(5-isobutyl-3-{p-[(2-methyl-1H-imidazol-1-yl)methyl]phenyl}-2-thienylsulfonyl)urea]
		61	Cc1nccn1Cc1ccc(-c2cc(CC(C)C)sc2S(=O)(=O)NC(=O)NCC(F)(F)F)c(F)c1 [Example 27, 3-(3-{2-Fluoro-4-[(2-methyl-1H-imidazol-1-yl)methyl]phenyl}-5-isobutyl-2-thienylsulfonyl)-1-(2,2,2-trifluoroethyl)urea]
> 1	> 1	25	Cc1nccn1Cc1ccc(-c2cc(CC(C)C)sc2S(=O)(=O)NC(=O)NCCC(F)(F)F)c(F)c1 [Example 26, 3-(3-{2-Fluoro-4-[(2-methyl-1H-imidazol-1-yl)methyl]phenyl}-5-isobutyl-2-thienylsulfonyl)-1-(3,3,3-trifluoropropyl)urea]
